Reference: ChEMBL document CHEMBL1130384, “Address and message sequences for the nociceptin receptor: a structure-activity study of nociceptin-(1-13)-peptide amide” (J Med Chem, 1997)
The source made the active and inactive calls. No cut-off for these calls is given here. Residues, ends and D or L forms follow the SMILES beside them.

Tests used:
[1] = species: Mus musculus; test: Tested for maximal effect induced by agonist; type: functional
[2] = species: Mus musculus; test: Tested for apparent affinity on electrically stimulated mouse vas deferens; type: functional, organism-based
[3] = species: Mus musculus; test: Tested for antagonistic properties by using NC(1-13)-NH2; In active at 10 uM; type: functional, organism-based
[4] = species: Mus musculus; test: Tested for maximal effect induced by agonist at 10 uM; Inactive; type: functional, organism-based
[5] = species: Mus musculus; test: Tested for apparent affinity on electrically stimulated mouse vas deferens at 10 uM; Inactive; type: functional, organism-based
[6] = species: Mus musculus; test: Tested for maximal effect induced by agonist at 10 uM; Slight effect was detected; type: functional, organism-based
[7] = species: Mus musculus; test: Tested for apparent affinity on electrically stimulated mouse vas deferens at 10 uM; Slight effect was detected; type: functional, organism-based
[8] = species: Mus musculus; test: Tested for antagonistic properties by using NC(1-13)-NH2 as agonist; Inactive at 10 uM; type: functional, organism-based
[9] = species: Mus musculus; test: Tested for maximal effect induced by agonist at 10 uM; In active; type: functional, organism-based
[10] = species: Mus musculus; test: Tested for apparent affinity on electrically stimulated mouse vas deferens at 10 uM; In active; type: functional, organism-based

| EC50 [2] [nM] | Log EC50 [5] | Molecule | Emax [1] [%] | Activity [3] | Emax [4] | also measured |
| --- | --- | --- | --- | --- | --- | --- |
| 17.8 |  | C[C@H](NC(=O)CNC(=O)[C@@H](NC(=O)[C@H](Cc1ccccc1)NC(=O)CNC(=O)CNC(=O)[C@@H](N)Cc1ccccc1)[C@@H](C)O)C(=O)N[C@@H](CCCNC(=N)N)C(=O)N[C@@H](CCCCN)C(=O)N[C@@H](CO)C(=O)N[C@@H](C)C(=O)N[C@@H](CCCNC(=N)N)C(=O)N[C@@H](CCCCN)C(N)=O | -84 |  |  |  |
|  | inactive | C=CCN(CC=C)[C@@H](Cc1ccccc1)C(=O)NCC(=O)NCC(=O)N[C@@H](Cc1ccccc1)C(=O)N[C@H](C(=O)NCC(=O)N[C@@H](C)C(=O)N[C@@H](CCCN=C(N)N)C(=O)N[C@@H](CCCCN)C(=O)N[C@@H](CO)C(=O)N[C@@H](C)C(=O)N[C@@H](CCCN=C(N)N)C(=O)N[C@@H](CCCCN)C(N)=O)[C@@H](C)O |  | inactive | inactive |  |
|  | inactive | NC(=O)[C@H](Cc1ccccc1)NC(=O)CNC(=O)CNC(=O)[C@@H](N)Cc1ccccc1 (H-FGGF-NH2) |  |  | inactive | Activity [8]: inactive |
|  | inactive | H-FGGFT-NH2 |  | inactive | inactive |  |
|  | inactive | H-FGGLTGARKSARK-NH2 |  | inactive | inactive |  |

Further lines, the molecule ahead of its results:

| Molecule | EC50 [2] [nM] | Log EC50 [5] | Emax [1] [%] | Activity [3] | Emax [4] | also measured |
| --- | --- | --- | --- | --- | --- | --- |
| C[C@H](NC(=O)CNC(=O)[C@@H](NC(=O)[C@H](Cc1ccccc1)NC(=O)CNC(=O)CNC(=O)[C@@H](N)Cc1ccccc1)[C@@H](C)O)C(=O)N[C@@H](CCCN=C(N)N)C(=O)N[C@@H](CCCCN)C(=O)N[C@@H](CO)C(=O)N[C@@H](C)C(=O)N[C@@H](CCCN=C(N)N)C(=O)N[C@@H](CCCCN)C(=O)O | 2240 |  | -73 |  |  |  |
| CC(=O)N[C@@H](Cc1ccccc1)C(=O)NCC(=O)NCC(=O)N[C@@H](Cc1ccccc1)C(=O)N[C@H](C(=O)NCC(=O)N[C@@H](C)C(=O)N[C@@H](CCCN=C(N)N)C(=O)N[C@@H](CCCCN)C(=O)N[C@@H](CO)C(=O)N[C@@H](C)C(=O)N[C@@H](CCCN=C(N)N)C(=O)N[C@@H](CCCCN)C(N)=O)[C@@H](C)O | 1510 |  | -79 |  |  |  |
| C[C@H](NC(=O)CNC(=O)[C@@H](NC(=O)[C@@H](Cc1ccccc1)NC(=O)CNC(=O)CNC(=O)[C@@H](N)Cc1ccccc1)[C@@H](C)O)C(=O)N[C@@H](CCCN=C(N)N)C(=O)N[C@@H](CCCCN)C(=O)N[C@@H](CO)C(=O)N[C@@H](C)C(=O)N[C@@H](CCCN=C(N)N)C(=O)N[C@@H](CCCCN)C(N)=O |  |  |  | inactive |  | Emax [6]: crc incom; Log EC50 [7]: crc incom |
| C[C@H](NC(=O)CNC(=O)[C@@H](NC(=O)[C@H](Cc1ccccc1)NC(=O)CNC(=O)CNC(=O)[C@@H](N)Cc1ccccc1)[C@@H](C)O)C(=O)N[C@@H](CCCN=C(N)N)C(=O)N[C@@H](CCCCN)C(=O)N[C@@H](CO)C(=O)N[C@@H](C)C(=O)N[C@@H](CCCN=C(N)N)C(=O)O |  | inactive |  | inactive | inactive |  |
| C[C@H](NC(=O)CNC(=O)[C@@H](NC(=O)[C@H](Cc1ccccc1)NC(=O)CNC(=O)CNC(=O)[C@H](N)Cc1ccccc1)[C@@H](C)O)C(=O)N[C@@H](CCCN=C(N)N)C(=O)N[C@@H](CCCCN)C(=O)N[C@@H](CO)C(=O)N[C@@H](C)C(=O)N[C@@H](CCCN=C(N)N)C(=O)N[C@@H](CCCCN)C(N)=O |  |  |  | inactive |  | Emax [6]: crc incom; Log EC50 [7]: crc incom |
| CC(C)C[C@H](NC(=O)[C@H](CCCCN)NC(=O)[C@H](CCCNC(=N)N)NC(=O)[C@H](C)NC(=O)[C@H](CO)NC(=O)[C@H](CCCCN)NC(=O)[C@H](CCCNC(=N)N)NC(=O)[C@H](C)NC(=O)CNC(=O)[C@@H](NC(=O)[C@H](Cc1ccccc1)NC(=O)CNC(=O)CNC(=O)[C@@H](N)Cc1ccccc1)[C@@H](C)O)C(=O)N[C@@H](C)C(=O)N[C@@H](CC(N)=O)C(=O)N[C@@H](CCC(N)=O)C(=O)O [NOCICEPTIN] | 14.5 |  | -83 |  |  |  |
| H-FAAFTGARKSARK-NH2 |  | inactive |  | inactive |  | Emax [9]: inactive |
| H-FGFTGARKSARK-NH2 |  |  |  | inactive |  | Emax [9]: inactive; Log EC50 [10]: inactive |
| H-FGGFTGAAASARK-NH2 |  |  |  | inactive |  | Emax [6]: crc incom; Log EC50 [7]: crc incom |
| H-FGGFTGARK-NH2 |  | inactive |  | inactive | inactive |  |
| H-FGGFTGARKSA-NH2 |  |  |  | inactive |  | Emax [6]: crc incom; Log EC50 [7]: crc incom |
| H-FGGFTGARKSAR-NH2 | 871 |  | -79 |  |  |  |
| H-LGGFTGARKSARK-NH2 | 28.2 |  | -80 |  |  |  |
